# Measured values from patent US11738062B2, “Herbal medicine extracts and uses and methods of preparation thereof” (ALPHA OASIS LLC, priority 2018, dated 2023).
# System: collagen-induced arthritis DBA/1J mouse model
# Assay: murine model of collagen-induced arthritis, Arthritic Index (AI) scoring
# Format: in vivo
# Settings: #4 and #10 100 μL topical patch, ENBREL 3 mg/kg subcutaneous
substance,measurement,setting,value
ENBREL®,"rate of disease progression (overall arthritis severity, FIG. 2)",14 days of daily treatment,swiftly arrested
same,reduction in arthritis severity score (AI),"after 14 days of daily treatment, compared to Group 2 (diseased, vegetable oil)",71%
